Test results from US12636283B2, “Inhibition of PRC2 subunits to treat eye disorders” (FONDATION ASILE DES AVEUGLES, priority 2018, dated 2026).
“Also recorded” adds a separate entry of the source.

Key:
[1] = target: T1, EZH2 (Mus musculus, UniProt Q61188); test: UNC1999 treatment of mouse embryonic fibroblasts, H3K27me3 immunostaining and western blot; assay type: cell-based
T1 construct: endogenous in cells; host or cells: Mouse Embryonic Fibroblasts (MEF)
Protocol: Mouse Embryonic Fibroblasts (MEF) were maintained in culture in Dulbecco's Modified Eagle's Media (DMEM), 10% fetal bovine serum (FBS) with penicillin and streptomycin, at 37° C., 5% CO2. The day before treatment, the cells were trypsinized and seeded at a density of 50,000 cells on poly-ornithine coated coverslips in 24 well plates. The next day, the media was discarded and fresh media containing various doses of the UNC1999 inhibitor dissolved in dimethyl sulfoxide (DMSO), ranging from 1 μM to 50 μM was added in triplicates, then incubated back at 37° C. for 48H. Control cells received the respective dimethyl sulfoxide DMSO used with the UNC1999. The coverslips were washed 3 times with pre-warmed phosphate buffer saline (PBS) 1× at room temperature (RT). The cells were fixed with 4% paraformaldehyde (PFA) for 12 min at RT. After two more washes in PBS, the cells were immediately proceeded for immunostaining. For western blot analysis, 200,000 cells were seeded in triplicates in 6 wells plates and treated as above.
Immunohistochemistry was performed on treated and non-treated slides. The sections were washed 3 times with cooled PBS 1× before being permeabilized with Triton X-100 for 20 min to further allow optimal antibodies-antigens interactions everywhere in the tissue and cells. The sections were blocked for 1 h with buffer containing 3% BSA (w/v), 5% NGS (v/v) in PBS 1× containing 0.3% Triton X-100. Appropriate antibodies dilutions (see list of antibodies with their respective applications in Table 2) were prepared in blocking solution and sufficient amount were laid and transferred to 4° C. over-night. The next day, the antibodies solutions were shed-off and the remaining non-interacting probes were washed off 3 times with PBS 1×. Interacting probes were then detected by applying a solution of appropriate conjugated secondary antibodies Alexa Fluor 488 or Alexa fluor 633 diluted in PBS 1× 1 h at RT. Finally, the nuclei were counterstained with 4′,6-diamidino-2-phenylindole (DAPI) solution prepared in PBS. Alternatively, for difficult to retrieve antigens such as cGMP and CDK4, special conditions were applied: Successful detection of CDK4 requires signal amplification, either with TSA* fluorescein detection kit (PerkinElmer) or 3,3′-diaminobenzidine (DAB) revelation system (Dako) according to providers instructions. The cGMP detection was achieved by permeabilizing the membrane with soft detergent solution (0.1% Triton X-100) and using Tris buffer (TBS) throughout the incubation steps. All the preparations were mounted with Mowiol and measurements were taken using an Olympus BX60 fluorescence microscope or Zeiss confocal microscopy (LSM 510 3.2 software). […]

[2] = test system: C57/B16 healthy mice; test: ERG recording of retina function in healthy mice before and one week after intravitreal injection; assay type: in vivo, mouse
Protocol: To test whether the UNC1999 dose tested ([…]) has a toxic effect on retina function, the retina activity of control (injected with the vehicle, DMSO) and UNC1999 treated C57/B16 healthy mice was recorded by ERG before and one week after intravitreal injection (FIG. 12). In scotopic condition, the b-wave maximum amplitude baseline of the DMSO treated group was a bit higher than the UNC1999 group one before the injection.

[3] = test system: Fam161a-/- mice; test: Repeated weekly intravitreal injection of UNC1999 in Fam161a-/- mice, photoreceptor rows and H3K27me3; assay type: in vivo, mouse; settings: 2-month-old Fam161a-/- mice
Protocol: (§1) The compound was delivered by intravitreal injection into the eyeball of PN08 Rd1 littermates. The animals (08 in total) were first anesthetized intraperitoneally (ip) with a mixture of 20 mg/kg Ketamine+300 μg/Kg of Dorbene. After 30 min, the recovery was performed by an ip injection of 300 μg/kg of Alzane. When necessary, the future edge of the eyelid was forced to open and maintained with forceps. The injection needle filled with 20 μM UNC1999 solution was inserted carefully into the vitreous through the sclera. A single dose (1 μl) of the intermediate solution was delivered slowly, leading to a final concentration of 2.5-3 μM, with a corresponding DMSO concentration of 0.0317%. For each animal, one eye received the compound whereas the other eye was injected with the vehicle. The injected animals were kept warmed and benefited from closest inspection until they wake up from anesthesia. 400 μl of 5% glucose and paracetamol were administered subcutaneously and intraperitoneally respectively to help for recovery before transferred back to their normal habits. The mice were sacrificed 4 days post injection and the eyeball excised as described below. Before processing, the eyes were carefully inspected for any sign of cataracts and unexpected lesions. Similarly, a single dose of UNC1999 (solution of 36 μM) was administered by intravitreal injection to 2 months old Fam161a^−/− mice (slow degenerative process), with repeated injection every week. The animal was sacrificed 4 days after the fourth injection.
The animals were sacrificed by a 7 min exposure to CO2. […] All quantifications were performed on the most central cryosections including (or surrounding) the optic nerve. Measurements of rows of nuclei were taken at the same geographic area for both dorsal and ventral sides of the retina in all sections and slides analyzed. […]
Immunohistochemistry was performed on treated and non-treated slides. […] Interacting probes were then detected by applying a solution of appropriate conjugated secondary antibodies Alexa Fluor 488 or Alexa fluor 633 diluted in PBS 1× 1 h at RT. […]

[4] = test system: Rd1 mice; test: Intravitreal injection of UNC1999 in PN8 Rd1 mice, H3K27me3 and TUNEL staining of the ONL; assay type: in vivo, mouse
Protocol: The UNC1999 inhibitor was supplied as lyophilized powder from commercial source (#SML0778-5MG, SIGMA). The stock solution was prepared in 100% DMSO according to the manufacturer's instructions. Sufficient amount of DMSO was added to the vial to generate a 10 mM stock solution. For optimal injection procedure, we reviewed three different parameters prior to intermediate solution preparation. Firstly, considering the volume of the vitreous of young mice (post-natal day 8, PN08) which is approximately 5.3 μl; the maximum safe amount (1 μl) that could be injected (final volume 6.3 μl) and the calculated effective dose of […] obtained from increasing doses along with cell culture experiments (see below). Therefore, the stock solution was then diluted in physiological buffer (0.9% NaCl) in order to make a 20 μM intermediate solution for subsequent experiments.
as §1
The animals were sacrificed by a 7 min exposure to CO2. The Histology was performed on enucleated eyes. Prior to cryosectioning, the eye globes were excised from the optic nerve and were perforated at the cornea level (a single tiny hole) with 25 G needle and transfer to 4% PFA (w/v) at RT. After 1 h incubation period, the eyes were washed in PBS 1× before being transferred in 30% sucrose over night at 4° C. The eyes were embedded in yazula and frozen at −20° C. and then 14 μm sections were performed with cryostat. The sections were collected on six serial slides for each eye. All quantifications were performed on the most central cryosections including (or surrounding) the optic nerve. Measurements of rows of nuclei were taken at the same geographic area for both dorsal and ventral sides of the retina in all sections and slides analyzed. The data were pooled as a mean for the dorsal or ventral zone of the retina
The frozen slides were warmed at RT, rehydrated and washed 3 times with PBS 1×. […]

[5] = mouse embryonic fibroblasts, FIG. 7B
[6] = intravitreal, weekly, four injections, solution of 36 μM
[7] = Rd1 PN8, intravitreal, 2.5 μM final eye concentration, 4 days post injection, vs DMSO treated eye
[8] = Rd1 eyes injected at PN8, 2.5 μM final eye concentration, vs vehicle (DMSO)

T1 sequence (Q61188 whole entry): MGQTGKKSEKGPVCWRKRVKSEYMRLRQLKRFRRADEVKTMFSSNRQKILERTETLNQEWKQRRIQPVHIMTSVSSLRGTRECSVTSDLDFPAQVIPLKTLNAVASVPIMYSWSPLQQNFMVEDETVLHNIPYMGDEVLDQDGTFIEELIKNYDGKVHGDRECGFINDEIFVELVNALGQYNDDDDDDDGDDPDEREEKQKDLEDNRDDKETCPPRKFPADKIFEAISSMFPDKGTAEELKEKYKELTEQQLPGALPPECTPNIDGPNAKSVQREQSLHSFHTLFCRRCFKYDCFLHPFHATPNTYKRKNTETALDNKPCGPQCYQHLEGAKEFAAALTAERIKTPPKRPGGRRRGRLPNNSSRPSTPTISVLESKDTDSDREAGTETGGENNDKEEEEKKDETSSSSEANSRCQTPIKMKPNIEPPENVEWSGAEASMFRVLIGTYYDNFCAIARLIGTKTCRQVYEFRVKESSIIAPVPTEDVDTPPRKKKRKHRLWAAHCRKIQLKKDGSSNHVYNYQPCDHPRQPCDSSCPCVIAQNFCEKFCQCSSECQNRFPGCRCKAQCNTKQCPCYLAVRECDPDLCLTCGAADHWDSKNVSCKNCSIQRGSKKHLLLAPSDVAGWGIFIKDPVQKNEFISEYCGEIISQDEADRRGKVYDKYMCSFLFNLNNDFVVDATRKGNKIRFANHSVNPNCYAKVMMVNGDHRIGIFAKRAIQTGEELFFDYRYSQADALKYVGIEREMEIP
T1 sequence (Q921E6 whole entry partner): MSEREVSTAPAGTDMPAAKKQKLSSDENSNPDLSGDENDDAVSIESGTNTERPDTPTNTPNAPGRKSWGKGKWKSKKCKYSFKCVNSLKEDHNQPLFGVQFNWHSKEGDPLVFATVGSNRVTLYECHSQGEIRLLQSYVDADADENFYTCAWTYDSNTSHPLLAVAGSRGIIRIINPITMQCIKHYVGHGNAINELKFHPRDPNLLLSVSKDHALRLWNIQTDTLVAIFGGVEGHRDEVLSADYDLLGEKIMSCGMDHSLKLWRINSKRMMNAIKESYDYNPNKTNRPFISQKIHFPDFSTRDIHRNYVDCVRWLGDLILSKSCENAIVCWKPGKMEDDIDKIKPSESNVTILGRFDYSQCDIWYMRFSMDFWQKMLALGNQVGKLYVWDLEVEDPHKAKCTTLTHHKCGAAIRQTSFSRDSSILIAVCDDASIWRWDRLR
T1 sequence (Q80U70 whole entry partner): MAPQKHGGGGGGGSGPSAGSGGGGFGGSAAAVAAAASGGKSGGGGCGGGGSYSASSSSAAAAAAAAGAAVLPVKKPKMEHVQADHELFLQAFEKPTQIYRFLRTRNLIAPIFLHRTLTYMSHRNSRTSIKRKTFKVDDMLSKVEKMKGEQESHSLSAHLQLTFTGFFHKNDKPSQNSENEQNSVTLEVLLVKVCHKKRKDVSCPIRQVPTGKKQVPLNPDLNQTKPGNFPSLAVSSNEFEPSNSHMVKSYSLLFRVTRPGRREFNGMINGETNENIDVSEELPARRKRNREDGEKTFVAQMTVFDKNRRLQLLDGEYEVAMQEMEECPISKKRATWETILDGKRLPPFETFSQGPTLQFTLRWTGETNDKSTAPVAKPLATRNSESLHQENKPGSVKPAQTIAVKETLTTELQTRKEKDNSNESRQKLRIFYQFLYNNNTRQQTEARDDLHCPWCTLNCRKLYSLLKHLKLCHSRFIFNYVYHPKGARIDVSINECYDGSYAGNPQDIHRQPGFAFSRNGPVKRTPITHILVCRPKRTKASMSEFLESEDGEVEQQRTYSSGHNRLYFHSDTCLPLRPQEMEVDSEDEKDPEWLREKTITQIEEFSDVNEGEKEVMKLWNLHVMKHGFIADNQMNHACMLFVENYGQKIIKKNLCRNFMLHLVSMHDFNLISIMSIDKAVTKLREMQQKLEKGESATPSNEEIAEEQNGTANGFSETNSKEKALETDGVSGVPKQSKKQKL
T1 sequence (Q60972 whole entry partner): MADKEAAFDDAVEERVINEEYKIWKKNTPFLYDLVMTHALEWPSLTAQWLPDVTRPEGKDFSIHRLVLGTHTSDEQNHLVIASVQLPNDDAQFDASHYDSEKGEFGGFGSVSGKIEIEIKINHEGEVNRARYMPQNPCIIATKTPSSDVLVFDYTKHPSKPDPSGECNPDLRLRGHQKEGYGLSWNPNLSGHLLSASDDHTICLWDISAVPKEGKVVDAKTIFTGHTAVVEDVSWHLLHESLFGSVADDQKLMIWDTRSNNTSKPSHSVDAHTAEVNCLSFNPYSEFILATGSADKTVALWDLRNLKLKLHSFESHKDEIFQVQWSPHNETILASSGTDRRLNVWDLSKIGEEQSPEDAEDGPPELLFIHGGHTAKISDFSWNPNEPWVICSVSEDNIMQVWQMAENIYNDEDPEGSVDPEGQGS

CCCc1cc(C)[nH]c(=O)c1CNC(=O)c1cc(-c2ccc(N3CCN(C(C)C)CC3)nc2)cc2c1cnn2C(C)C [UNC1999]
H3K27me3 mark by immunocytochemistry labelling [1, 5]: robust decreased of the mark | levels of EZH2 [1, 5]: slightly affected | calculated effective dose ([1]; obtained from increasing doses along with cell culture experiments): 6 µM | block of endogenous levels of H3K27me3 ([1]; proliferating mouse embryonic fibroblasts, 2.5 μM, compared to DMSO control): efficient to block the endogenous levels of H3K27me3 | ERG photopic response vs baseline ([2]; 3 cda/s.m^2 stimulation, one week after injection, both DMSO and UNC1999 treated animals): reduced response | ERG photopic flicker response, treated vs control group ([2]; 5, 10 and 15 Hz, one week after intravitreal injection): No differences between the control and the treated groups were observed | ERG flicker response vs baseline ([2]; 5 Hz, both treated groups (DMSO and UNC1999)): a reduction of the response occurred | ERG flicker response ([2]; 15 Hz, all groups): no differences were observed | ERG photopic maximum b-wave amplitude, treated vs vehicle group ([2]; healthy adult mice, one week after intravitreal injection): No differences between the two groups were noticed | ERG scotopic maximum b-wave amplitude ([2]; healthy adult mice, one week after intravitreal injection, vs DMSO group and baseline): no significant differences with the baseline; also recorded: No differences in retina activity | levels of H3K27me3 hyper trimethylation, injected vs non-injected side ([3]; dorso-ventral axis, 4 days after the last injection): did not observe any statistical differences; also recorded: no changes were observed | number of photoreceptor rows in the dorsal compartment [3, 6]: No significant difference | number of photoreceptor rows in the ventral ONL [3, 6]: statistical significant preservation | decline of hyper H3K27me3 signal in the ONL [4, 7]: 75% | decrease of number of TUNEL positive cells [4, 7]: 70% | H3K27me3 positive cells (in words) [4, 8]: marked reduction | TUNEL positive cells (in words) [4, 8]: marked reduction | retinal degeneration ([4]; Rd1 mouse): markedly delayed retinal degeneration
